Results published in the supplement of paper PMC10307832.

Experiments:
Experiment in all cases: relative viability (nuclei count vs DMSO), 5 days (fraction); higher = more cells survive
[1] = compound: N[C@@H]1CCCN(c2c(/C=C3\SC(=O)NC3=O)cccc2-c2ccccc2)C1 [AZD1208] + COc1cccc2cc(-c3nc([C@H]4CC[C@H](C(=O)O)CC4)n4ncnc(N)c34)[nH]c12 [OSI-027] (partner 0.5 µM)
Summary of the method: (§1)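 Relative viability was taken as the ratio of nuclei in treated wells to nuclei in vehicle wells. Lung cancer cell lines in 1536-well plates received compounds by pin tool one day after seeding, either one drug alone or a fixed anchor-drug dose plus five library-drug doses (not always all listed) in √10 steps. Nuclei were counted on 4× images after 5 days of treatment, and values are medians of duplicate plates.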

[2] = compound: N[C@@H]1CCCN(c2c(/C=C3\SC(=O)NC3=O)cccc2-c2ccccc2)C1 [AZD1208] + NC(=O)Nc1cc(-c2cccc(F)c2)sc1C(=O)N[C@H]1CCCNC1 [AZD7762] (partner 0.2 µM)
Summary of the method: as §1

[3] = compound: CN1CCN(CC1)C2=CC(=C(C=C2)NC3=NC(=C(S3)C(=O)C4=C(C=CC=C4Cl)Cl)N)OC [XMD14-99] + CCNC(=O)c1noc(-c2cc(C(C)C)c(O)cc2O)c1-c1ccc(CN2CCOCC2)cc1 [Luminespib] (partner 0.01 µM)
Summary of the method: as §1

[4] = compound: CN1CCN(CC1)C2=CC(=C(C=C2)NC3=NC(=C(S3)C(=O)C4=C(C=CC=C4Cl)Cl)N)OC [XMD14-99] + CS(=O)(=O)N1CCN(Cc2cc3nc(-c4cccc5[nH]ncc45)nc(N4CCOCC4)c3s2)CC1 [Pictilisib] (partner 1 µM)
Summary of the method: as §1

Cell Line | relative viability ([1]; first compound 0.08 µM) | relative viability ([1]; first compound 0.253 µM) | relative viability ([1]; first compound 0.8 µM) | relative viability ([1]; first compound 2.53 µM) | relative viability ([1]; first compound 8 µM) | relative viability ([2]; first compound 0.08 µM) | relative viability ([2]; first compound 0.253 µM) | relative viability ([2]; first compound 0.8 µM) | relative viability ([2]; first compound 2.53 µM) | relative viability ([2]; first compound 8 µM) | relative viability ([3]; first compound 0.08 µM) | relative viability ([3]; first compound 0.8 µM) | relative viability ([3]; first compound 2.53 µM) | relative viability ([3]; first compound 8 µM) | relative viability ([4]; first compound 0.08 µM) | relative viability ([4]; first compound 0.8 µM) | relative viability ([4]; first compound 2.53 µM) | relative viability ([4]; first compound 8 µM)
NCI-H1975 | 0.682 | 0.688 | 0.68 | 0.758 | 0.594 | 0.746 | 0.784 | 0.691 | 0.746 | 0.642 | 0.268 | 0.238 | 0.206 | 0.209 | 0.286 | 0.317 | 0.257 | 0.197
NCI-H1993 | 0.599 | 0.447 | 0.616 | 0.491 | 0.536 | 0.679 | 0.654 | 0.629 | 0.757 | 0.579 | 0.849 | 0.761 | 0.782 | 0.632 | 0.888 | 0.759 | 0.766 | 0.798
NCI-H2085 | 0.796 | 0.933 | 0.585 | 0.934 | 0.661 | 1 | 1.13 | 0.911 | 0.892 | 1.04 | 0.429 | 0.41 | 0.377 | 0.368 | 0.454 | 0.446 | 0.445 | 0.482
NCI-H2087 | 0.518 | 0.508 | 0.427 | 0.513 | 0.445 | 1.29 | 1.45 | 1.35 | 1.46 | 1.32 | 0.151 | 0.173 | 0.179 | 0.135 | 0.95 | 0.787 | 0.602 | 0.525
